Laboratory results taken from ChEMBL document CHEMBL1201862, “PubChem BioAssay data set” (2004).
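Where inhibition never reached the appropriate level, the endpoint shown equals the highest concentration tested. Otherwise, values were interpolated linearly from a five-concentration, 48-hour dose response in 96-well plates. Abbreviation: GI50, concentration required for 50% inhibition of growth.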 Active and inactive are the calls of the source. Rule as the data show it: active = GI50 up to about 1.1 µM and inactive = higher.

What was measured:
Assay in all cases: growth of human tumour cells (NCI), 48 h
ACHN = tested on: ACHN
A498 = tested on: A498
CAKI-1 = tested on: CAKI-1
Hs-578T = tested on: Hs-578T
SF-295 = tested on: SF-295
HT-29 = tested on: HT-29
HOP-92 = tested on: HOP-92
SF-268 = tested on: SF-268
HCT-15 = tested on: HCT-15
COLO 205 = tested on: COLO 205
LOX IMVI = tested on: LOX IMVI
HCT-116 = tested on: HCT-116
IGROV-1 = tested on: IGROV-1
NCI-H460 = tested on: NCI-H460
RPMI-8226 = tested on: RPMI-8226
SR = tested on: SR
Malme-3M = tested on: Malme-3M
SF-539 = tested on: SF-539
786-0 = tested on: 786-0
HL-60 = tested on: HL-60
OVCAR-3 = tested on: OVCAR-3
NCI-H23 = tested on: NCI-H23
UACC-257 = tested on: UACC-257
DU-145 = tested on: DU-145
SN12C = tested on: SN12C
UACC-62 = tested on: UACC-62
OVCAR-4 = tested on: OVCAR-4
KM12 = tested on: KM12
OVCAR-5 = tested on: OVCAR-5
HCC 2998 = tested on: HCC 2998
PC-3 = tested on: PC-3
NCI/ADR-RES = tested on: NCI/ADR-RES
MDA-N = tested on: MDA-N
SK-MEL-2 = tested on: SK-MEL-2
RXF 393 = tested on: RXF 393
K562 = tested on: K562
SNB-19 = tested on: SNB-19
UO-31 = tested on: UO-31
T47D = tested on: T47D
SK-OV-3 = tested on: SK-OV-3
EKVX = tested on: EKVX
M14 = tested on: M14
BT-549 = tested on: BT-549
OVCAR-8 = tested on: OVCAR-8
HOP-62 = tested on: HOP-62
U-251 = tested on: U-251
SK-MEL-28 = tested on: SK-MEL-28
MCF7 = tested on: MCF7
SK-MEL-5 = tested on: SK-MEL-5
CCRF-CEM = tested on: CCRF-CEM
NCI-H226 = tested on: NCI-H226
SW-620 = tested on: SW-620
MDA-MB-435 = tested on: MDA-MB-435
A549 = tested on: A549
MDA-MB-231 = tested on: MDA-MB-231
NCI-H522 = tested on: NCI-H522
SNB-75 = tested on: SNB-75
TK-10 = tested on: TK-10
MOLT-4 = tested on: MOLT-4

With `O=C(CCCN1CCC2(CC1)C(=O)NC(=O)N2c1ccccc1)c1ccc(F)cc1` the GI50 (ACHN) was > 100 µM (inactive), the GI50 (A498) was > 100 µM (inactive) and the GI50 (CAKI-1) was > 100 µM (inactive). The GI50 (Hs-578T) was > 100 µM (inactive), the GI50 (SF-295) was > 100 µM (inactive) and the GI50 (HT-29) was 66.2 µM (inactive). The GI50 (HOP-92) was > 100 µM (inactive), the GI50 (SF-268) was > 100 µM (inactive) and the GI50 (HCT-15) was > 100 µM. For the same compound, the GI50 (COLO 205) was > 100 µM (inactive), the GI50 (LOX IMVI) was > 100 µM (inactive) and the GI50 (HCT-116) was > 100 µM (inactive). The GI50 (IGROV-1) was > 100 µM (inactive), the GI50 (NCI-H460) was > 100 µM (inactive) and the GI50 (RPMI-8226) was > 100 µM (inactive). For the same compound, the GI50 (SR) was > 100 µM (inactive), the GI50 (Malme-3M) was > 100 µM (inactive) and the GI50 (SF-539) was > 100 µM (inactive). The GI50 (786-0) was > 100 µM (inactive), the GI50 (HL-60) was > 100 µM (inactive) and the GI50 (OVCAR-3) was > 100 µM (inactive). The GI50 (NCI-H23) was > 100 µM (inactive), the GI50 (UACC-257) was > 100 µM (inactive) and the GI50 (DU-145) was > 100 µM (inactive). For the same compound, the GI50 (SN12C) was > 100 µM (inactive), the GI50 (UACC-62) was > 100 µM (inactive) and the GI50 (OVCAR-4) was > 100 µM (inactive). The GI50 (KM12) was > 100 µM (inactive), the GI50 (OVCAR-5) was > 100 µM (inactive) and the GI50 (HCC 2998) was > 100 µM (inactive). The GI50 (PC-3) was > 100 µM (inactive), the GI50 (NCI/ADR-RES) was > 100 µM (inactive) and the GI50 (MDA-N) was > 100 µM (inactive). For the same compound, the GI50 (SK-MEL-2) was > 100 µM (inactive), the GI50 (RXF 393) was > 100 µM (inactive) and the GI50 (K562) was > 10 µM (inactive). For the same compound, the GI50 (SNB-19) was > 100 µM (inactive), the GI50 (UO-31) was > 100 µM (inactive) and the GI50 (T47D) was > 100 µM (inactive). For the same compound, the GI50 (SK-OV-3) was > 100 µM (inactive), the GI50 (EKVX) was > 100 µM (inactive) and the GI50 (M14) was > 100 µM (inactive). The GI50 (BT-549) was > 100 µM (inactive), the GI50 (OVCAR-8) was > 100 µM (inactive) and the GI50 (HOP-62) was > 100 µM (inactive). The GI50 (U-251) was > 100 µM (inactive), the GI50 (SK-MEL-28) was > 100 µM (inactive) and the GI50 (MCF7) was > 100 µM (inactive). For the same compound, the GI50 (SK-MEL-5) was > 100 µM (inactive), the GI50 (CCRF-CEM) was > 100 µM (inactive) and the GI50 (NCI-H226) was > 100 µM (inactive). The GI50 (SW-620) was > 100 µM (inactive), the GI50 (MDA-MB-435) was > 100 µM (inactive) and the GI50 (A549) was > 100 µM (inactive). The GI50 (MDA-MB-231) was > 100 µM (inactive), the GI50 (NCI-H522) was 8.73 µM (inactive) and the GI50 (SNB-75) was > 100 µM (inactive). The GI50 (TK-10) was > 100 µM (inactive) and the GI50 (MOLT-4) was > 100 µM (inactive).
`COC(=O)[C@@H](NC(=O)[C@H](N)Cc1ccc(N(CCCl)CCCl)cc1)C(C)C` was tested, and the GI50 (ACHN) was 3.56 µM (inactive), the GI50 (A498) was 18.7 µM (inactive) and the GI50 (CAKI-1) was 0.481 µM (active). The GI50 (Hs-578T) was 26.2 µM (inactive), the GI50 (SF-295) was 18.7 µM (inactive) and the GI50 (HT-29) was 24.6 µM (inactive). For the same compound, the GI50 (HOP-92) was 1.63 µM (inactive), the GI50 (SF-268) was 10.6 µM (inactive) and the GI50 (HCT-15) was 18.4 µM. For the same compound, the GI50 (COLO 205) was 16.9 µM (inactive), the GI50 (LOX IMVI) was 5.97 µM (inactive) and the GI50 (HCT-116) was 15 µM (inactive). For the same compound, the GI50 (IGROV-1) was 15.9 µM (inactive), the GI50 (NCI-H460) was 10.1 µM (inactive) and the GI50 (RPMI-8226) was 5.3 µM (inactive). For the same compound, the GI50 (SR) was 0.53 µM (active), the GI50 (Malme-3M) was 1.92 µM (inactive) and the GI50 (SF-539) was 7.91 µM (inactive). The GI50 (786-0) was 8.65 µM (inactive), the GI50 (HL-60) was 1.32 µM (inactive) and the GI50 (OVCAR-3) was 6.38 µM (inactive). The GI50 (NCI-H23) was 3.66 µM (inactive), the GI50 (UACC-257) was 6.37 µM (inactive) and the GI50 (DU-145) was 8.57 µM (inactive). The GI50 (SN12C) was 13.9 µM (inactive), the GI50 (UACC-62) was 2.39 µM (inactive) and the GI50 (OVCAR-4) was 13.1 µM (inactive). The GI50 (KM12) was 25.1 µM (inactive), the GI50 (OVCAR-5) was 36.5 µM (inactive) and the GI50 (HCC 2998) was 5.55 µM (inactive). For the same compound, the GI50 (PC-3) was 21.7 µM (inactive), the GI50 (NCI/ADR-RES) was 12.6 µM (inactive) and the GI50 (MDA-N) was 23.3 µM (inactive). For the same compound, the GI50 (SK-MEL-2) was 28.9 µM (inactive), the GI50 (RXF 393) was 12 µM (inactive) and the GI50 (K562) was 12.9 µM (inactive). The GI50 (SNB-19) was > 54.1 µM (inactive), the GI50 (UO-31) was 12 µM (inactive) and the GI50 (T47D) was 2.86 µM (inactive). For the same compound, the GI50 (SK-OV-3) was 32.7 µM (inactive), the GI50 (EKVX) was 34 µM (inactive) and the GI50 (M14) was 8.17 µM (inactive). For the same compound, the GI50 (BT-549) was 23.4 µM (inactive), the GI50 (OVCAR-8) was 7.06 µM (inactive) and the GI50 (HOP-62) was 19.9 µM (inactive). The GI50 (U-251) was 19.4 µM (inactive), the GI50 (SK-MEL-28) was 11.9 µM (inactive) and the GI50 (MCF7) was 12.5 µM (inactive). For the same compound, the GI50 (SK-MEL-5) was 1.78 µM (inactive), the GI50 (CCRF-CEM) was 0.435 µM (active) and the GI50 (NCI-H226) was 18.7 µM (inactive). For the same compound, the GI50 (SW-620) was 11 µM (inactive), the GI50 (MDA-MB-435) was 19 µM (inactive) and the GI50 (A549) was 18.2 µM (inactive). For the same compound, the GI50 (MDA-MB-231) was 26.1 µM (inactive), the GI50 (NCI-H522) was 5.92 µM (inactive) and the GI50 (SNB-75) was 11.1 µM (inactive). For the same compound, the GI50 (TK-10) was 22.4 µM (inactive) and the GI50 (MOLT-4) was 0.0204 µM (active).
